For 11 molecules, Stability results results are on record in patent publication US20050032757A1, “Nutritional supplements” (priority 2003, published 2005).

Structures can show the parent of a compound that is named as a salt.

The series is described as follows: Evaluation of composition stability of PSE and fish oil mixtures with test reagents. To be noted: fish oil 2 g. In kind it is physicochemical. How it is done: Varying amounts of PSE and fish oil were mixed in a 50 ml beaker. The mixture was warmed to 35-40° C. A variety of test reagents, including surfactants and small carboxylic acid esters, were then examined for their ability to stabilize the mixture at room temperature (RT), 40° C., and 50° C.

The mark [1] stands for this setting: Phytosterol 4 g, test reagent 0.10 g.
Where [2] appears, read: Phytosterol 4 g, test reagent 0.20 g.
Where [3] appears, read: Phytosterol 4 g, test reagent 0.30 g.
Setting [4] is: Phytosterol 4 g, test reagent 0.40 g.
The mark [5] stands for this setting: Phytosterol 2 g, test reagent 0.10 g.

As to `O=C(O)CC(O)(CC(=O)O)C(=O)O` [Citric Acid], the Stability results by setting is: under setting [1], “insoluble”; under setting [2], “insoluble”; under setting [3], “insoluble”.
On to `CCOC(=O)[C@H](O)[C@@H](O)C(=O)OCC` [Diethyl L-tartrate], for which the Stability results was “stable (stable (did not separate for 24 hours))” under setting [1], “stable (stable (did not separate for 24 hours))” under setting [2] and “stable (stable (did not separate for 24 hours))” under setting [3].
With `CCOC(=O)/C=C\C(=O)OCC` [Diethyl Maleate], the Stability results under setting [1] is recorded as “stable (stable (did not separate for 24 hours))”, the Stability results under setting [2] was “stable (stable (did not separate for 24 hours))” and the Stability results under setting [3] was “insoluble”.
On to `OCC(O)CO` [Glycerin], for which, under setting [1], the Stability results was “insoluble”.
Regarding `CCOC(=O)CC(O)(CC(=O)OCC)C(=O)OCC` [Triethyl Citrate], the Stability results reads like this: (Phytosterol 2 g, test reagent 0.30 g) “unstable (unstable (separated quickly, usually less than 1-2 hr))”; under setting [1], “stable (stable (did not separate for 24 hours))”; under setting [2], “stable (stable (did not separate for 24 hours))”; under setting [3], “stable (stable (did not separate for 24 hours))”; under setting [4], “stable (stable (did not separate for 24 hours))”.
In the case of Polysorbate 20, the Stability results is “unstable (unstable (separated quickly, usually less than 1-2 hr))” under setting [1] and “unstable (unstable (separated quickly, usually less than 1-2 hr))” under setting [2].
Polysorbate 60: the Stability results is, setting by setting: under setting [5], “unstable (unstable (separated quickly, usually less than 1-2 hr))”; under setting [2], “unstable (unstable (separated quickly, usually less than 1-2 hr))”; under setting [3], “unstable (unstable (separated quickly, usually less than 1-2 hr))”; under setting [4], “unstable (unstable (separated quickly, usually less than 1-2 hr))”.
On to Polysorbate 80, for which the Stability results is recorded as “unstable (unstable (separated quickly, usually less than 1-2 hr))” under setting [5] and “unstable (unstable (separated quickly, usually less than 1-2 hr))” under setting [2].
On to Sodium Caproyl Lactylate, for which the Stability results under setting [2] is given as “unstable (unstable (separated quickly, usually less than 1-2 hr))”.
For Sodium Isostearyl Lactylate, the Stability results under setting [1] was “unstable (unstable (separated quickly, usually less than 1-2 hr))”.
On to Sorbitan Oleate, for which the Stability results reads like this: under setting [1], “unstable (unstable (separated quickly, usually less than 1-2 hr))”; under setting [2], “unstable (unstable (separated quickly, usually less than 1-2 hr))”; under setting [3], “unstable (unstable (separated quickly, usually less than 1-2 hr))”; under setting [4], “unstable (unstable (separated quickly, usually less than 1-2 hr))”.
